The test system of experiment [1] is bilateral carotid artery occlusion (BCAO) mice. The experiment can be described thus: Western blot of brain tissue in BCAO stroke model. It is filed as in vivo. As to the method: (§1) For the bilateral carotid artery occlusion assay (BCAO) experiments, male Swiss Webster mice (20 weeks of age) were obtained from Charles River laboratory. The mice were allowed access to water only and kept fasting overnight before surgery. Mice were anesthetized with ketamine (100 mg/kg, i.p.) plus xylazine (10 mg/kg, i.p.). For induction of anesthesia, mice were exposed to a gaseous mixture consisting of 30% oxygen, 70% N2O and 0.5% isoflurane using a vaporizer. For maintenance of anesthesia, isoflurane concentration was used to 0.5%. Mice were breathing spontaneously via breathing mask throughout the surgical procedure. A rectal temperature probe was inserted. During surgery, mice were resting on a thermostat-controlled heating pad, ensuring a constant core temperature of 37.0±0.5° C.
While anesthesia was maintained as described above, each mouse was placed on its back, and its tail and paws were fixed to the heating pad using adhesive tape. A sagittal ventral midline incision (˜1 cm length) was performed. Both common carotid arteries (CCAs) were isolated, freed of nerve fibers, and occluded using non-traumatic aneurysm clips. Complete interruption of blood flow was confirmed under an operating microscope. After 30 min of ischemia, the aneurysm clips were removed from both CCAs. Restoration of blood flow (reoxygenation) was observed directly under the microscope. Sham-operated controls were subjected to the same surgical procedures except that CCAs were not occluded. The body temperature was monitored and maintained at 37° C.±0.5° C. during the immediate postoperative period until the animals recovered fully from anesthesia.
Animals were randomly assigned for sham, control, and experimental groups. Thereafter, in experimental group (carbamathione treated group, N=9), carbamathione (14 mg/kg in 0.3 mL saline 0.9%) was injected subcutaneously 30 min after occlusion and continued daily until the animal was sacrificed. In control groups (vehicle-treated group, N=9), vehicle (0.3 ml saline 0.9%) was injected subcutaneously 30 min after occlusion. Sham-operated group (N=6) received the same surgical procedure without occlusion of common carotid artery. After surgery, animals were allowed to recover from the anesthesia, and given food and water ad libitum. The animals were daily examined for body temperature and weight, and those who had body temperature more than 39° C. after 24 hour were excluded from the experiment.
For the Western blot assays, animals were deeply anesthetized by isoflurane (Phoenix) and decapitated, and then brains were rapidly removed. […] Protein concentrations of each sample solution were determined with a Bradford protein assay, and samples were stored at −80° C. until use. […]
A general note: A western blot detects proteins with antibodies after separation by electrophoresis.

Experiment [2] shares this test system. The experiment is described as follows: Locomotor activity on force-plate actometer in BCAO stroke model. The class given is in vivo. To be noted: 14 mg/kg s.c. daily; 4 days after BCAO; FIG. 22. As to the method:
as §1
While anesthesia was maintained as described above, each mouse was placed on its back, and its tail and paws were fixed to the heating pad using adhesive tape. A sagittal ventral midline incision (˜1 cm length) was performed. Both common carotid arteries (CCAs) were isolated, freed of nerve fibers, and occluded using non-traumatic aneurysm clips. Complete interruption of blood flow was confirmed under an operating microscope. […] The body temperature was monitored and maintained at 37° C.±0.5° C. during the immediate postoperative period until the animals recovered fully from anesthesia. […]

For experiment [3] the test system is unchanged. The experiment is described as follows: Corner test in BCAO stroke model. The class given is in vivo. The conditions noted are these: 14 mg/kg s.c. daily; up to 4 days after BCAO; untreated BCAO ~90% to one side; FIG. 21. As for the experimental part: as §1, with “During surgery, mice were resting on a thermostat-controlled heating pad, ensuring a constant core temperature of 37.0±0.5° C.” left out
While anesthesia was maintained as described above, each mouse was placed on its back, and its tail and paws were fixed to the heating pad using adhesive tape. […] The body temperature was monitored and maintained at 37° C.±0.5° C. during the immediate postoperative period until the animals recovered fully from anesthesia.
The Corner test, which determines an animal's asymmetric direction of turning when encountering a corner, is used as an indicator of brain injury. […] Each mouse took part in ten trials, after which we calculated the percentage of turns to each side, recording only those turns involving full rearing along one of the boards. […]

The test system of experiment [4] is PC-12 cells. The experiment is described as follows: Western blot of stress/apoptosis markers in PC-12 cells under hypoxia/reoxygenation. It is filed as cell-based. As for the experimental part: For the Western blot assays, animals were deeply anesthetized by isoflurane (Phoenix) and decapitated, and then brains were rapidly removed. After sacrifice, the while the brain was on ice, the left hemisphere and the right hemisphere (identical parts) were quickly dissected on dry ice and homogenized in Lysis buffer consisting of 50 mM Tris-HCl, 150 mM NaCl, 2 mM EDTA, pH 8.0, 1% Triton-X-100, 1:100 dilution of mammalian protease inhibitors (Sigma-Aldrich, MO, USA) and protease inhibitor for immunoblotting. Protein concentrations of each sample solution were determined with a Bradford protein assay, and samples were stored at −80° C. until use. Protein samples were separated by 12% sodium dodecyl sulfate-polyacrylamide gel electrophoresis and transferred onto nitrocellulose membranes. Western blot was performed using the following primary antibodies overnight: abcam: GRP 78, HSP70, HSP 27, activating transcription factor 4 (ATF4), and X-box-binding protein 1 (XBP-1) (1:500); Cell Signaling: GAPDH (1:3,000), Bax, BCL2 (1:1,000), AKT, phosphorylated AKT (p-AKT); Santa Cruz: CHOP/GADD153); Imgenex: ATF6 (1:1,500). The membranes were washed three times with Tris-buffered saline containing 0.1% Tween-20 (TBS-T) and incubated with secondary antibodies for 1 hour at room temperature. Secondary antibodies used were goat IRDye 800-conjugated anti-rabbit (1:15,000) and IRDye 680 conjugated anti-mouse (1:15,000) antibodies (LI-COR Biosciences, Lincoln, Nebr., USA). Fluorescent signals were detected with a LI-COR Odyssey Fc system and the images were quantified with the provided either Image Studio 2.0 software or image J software.
(§2) In another set of experiments, the effect of carbamathione on cell viability and expression of various biomarkers in PCT-12 cells exposed to hypoxia/reoxygenation was evaluated. Referring to FIG. 9, PC-12 cells were exposed to hypoxia and reoxygenation in the presence or in the absence of 5-100 μM carbamathione. […] Referring to FIGS. 13 and 14, GRP 78, CHOP, Caspase-12, and cleaved Caspase-12 expression induced by hypoxia-reoxygenation were each inhibited by carbamathione.

Experiment [5] deals with bilateral carotid artery occlusion (BCAO) mice. The experiment is described as follows: Brain infarct by TTC staining in BCAO stroke model. It is filed as in vivo. To be noted: 14 mg/kg subcutaneously 30 min after occlusion. As for the experimental part: as §1
While anesthesia was maintained as described above, each mouse was placed on its back, and its tail and paws were fixed to the heating pad using adhesive tape. A sagittal ventral midline incision (˜1 cm length) was performed. […] The body temperature was monitored and maintained at 37° C.±0.5° C. during the immediate postoperative period until the animals recovered fully from anesthesia. […]
Mice were euthanized 4 days after surgery. […] To assess lesion volume, TTC-stained slices (2, 4, 6, 8, and 10 mm from the frontal pole) were scanned using a scanner and analyzed by Image-J analysis software. […]

The test system of experiment [6] is PC-12 cells. The experiment can be described thus: ATP assay of cell viability, PC-12 cells under hypoxia/reoxygenation. The class given is cell-based. To be noted: 5-100 μM carbamathione; hypoxia and reoxygenation; without treatment about 47% of control; FIG. 9. As for the experimental part: as §2
The test system of experiment [7] is PC-12 cells. To be noted: 10 mM glutamate for 24 hours.
Protocol: PC-12 cells (purchased from ATCC, Manassas, Va., USA) were cultured in a petri dish for one week prior to use. PC-12 cells were maintained at 37° C./5% CO2 in an incubator, and fed every other day using F12-K medium supplemented with 5% (v/v) fetal bovine serum (FBS), 10% (v/v) heat-inactivated horse serum (HS) and 1% (v/v) penicillin-streptomycin solution. Experiments were performed on undifferentiated cells plated in 96-well plates at a density of approximately 5×10^4 cells/ml for the ATP assay. On first day of use, cells were harvested by first adding 2 mL trypsin and incubated for 15 minutes. 2 mL fresh medium was then used as a wash and cells were spun, and re-suspended. Cell density was determined by cell counting using a hemocytometer and a tissue culture microscope. After cell density was determined, 96-well plates and 6-well plates were plated with 2.5×10^4 cells per well and 5×10^5 cells per well for the adenosine 5′-triphosphate (ATP) assay and Western blot analysis, respectively.
Cell cultures were preincubated with 0.5 μM to 500 μM concentration of carbamathione for one hour. […] For the ATP assay, ATP solution was added to each well, and cells were incubated for 10 min after which time the amount of ATP was quantified through a luciferase reaction. The luminescence intensity was determined using a luminometer with lysates in a standard opaque-walled multi-well plate. […]
Where [8] appears, read: after 4 days, compared to vehicle treated group, FIG. 23.
Where [9] appears, read: day 4 post BCAO, compared with vehicle treated group, FIG. 24.

As for `CCN(CC)C(=O)SC[C@H](NC(=O)CC[C@H](N)C(=O)O)C(=O)NCC(=O)O` [carbamathione, S—(N,N-diethylcarbamoyl)glutathione], in experiment [1] (setting [8]), the “CHOP expression in the brains” value is “decreased dramatically” and the “GRP 78 expression in the brains” value is “decreased dramatically”. Besides, in experiment [1] (setting [9]), the “Bax expression in the brains” value is “decreased expression” and the “Bcl2 expression in the brains” value is reported as “significantly increased expression”. For the same compound, in experiment [2], the locomotor activity result was “statistically significantly different than BCAO with vehicle group”. Further, in experiment [3], the “asymmetric turning in Corner test” value is given as “not significant differently from that seen in the sham-operated mice”. Also, in the experiment on PC-12 cells [4] (FIG. 13), the “CHOP expression induced by hypoxia-reoxygenation” value is recorded as “inhibited” and the “GRP 78 expression induced by hypoxia-reoxygenation” value is recorded as “inhibited”. In the experiment on PC-12 cells [4] (FIG. 14), the “Caspase-12 expression induced by hypoxia-reoxygenation” value is listed as “inhibited” and the “cleaved Caspase-12 expression induced by hypoxia-reoxygenation” value is “inhibited”. Also, the “ATF4 expression induced by hypoxia-reoxygenation” value in the experiment on PC-12 cells [4] (FIG. 15) is “inhibited”. Further, the “ATF6 expression induced by hypoxia-reoxygenation” value in the experiment on PC-12 cells [4] (FIG. 16) was “inhibited”. Further, the “XBP1 expression induced by hypoxia-reoxygenation” value in the experiment with PC-12 cells [4] (FIG. 17) is “inhibited”. Further, in the experiment with PC-12 cells [4] (FIG. 18), the “Bax expression (upregulation induced by hypoxia/reoxygenation)” value was “decreased the upregulation”, the “Bcl2 expression (downregulation induced by hypoxia/reoxygenation)” value is reported as “increased the downregulation” and the “decrease in the Bcl2:Bax ratio induced by hypoxia/reoxygenation” value was “inhibited”. In the experiment on PC-12 cells [4] (FIG. 19), the “cleaved Caspase-3 expression (upregulation induced by hypoxia/reoxygenation)” value is “decreased the upregulation”. Besides, in the experiment on PC-12 cells [4] (hypoxia-reoxygenation, FIG. 12), the AKT expression entry is on record as “no changes”. Moreover, in the experiment with PC-12 cells [4] (hypoxia-reoxygenation, compared to hypoxia-reoxygenation alone, FIG. 10), the “Hsp 27 expression” value is “greater over-expression”. Further, the “Hsp 70 expression” value with PC-12 cells [4] (hypoxia-reoxygenation, compared to hypoxia-reoxygenation alone, FIG. 11) is given as “greater over-expression”. The P-AKT expression result with PC-12 cells [4] (hypoxia-reoxygenation, compared to hypoxia-reoxygenation alone, FIG. 12) is “up-regulated”. For the same compound, the “infarct size (TTC staining)” value in experiment [5] (daily, 4 days after surgery, 2, 4, 6, 8, 10 mm from frontal pole, FIG. 20) is reported as “noticeably reduced”. The “volume of the lesion” value in experiment [5] (sections 2, 4, 6, 8 and 10 mm, 30 min transient BCAO, FIG. 20c) is reported as “markedly reduced”. Moreover, the “cell viability (ATP levels)” value with PC-12 cells [6] is on record as “dramatically increased the cell viability”.
For the compound `N[C@@H](CCC(=O)O)C(=O)O` [glutamate], the “survival of PC-12 cells (ATP assay)” value with PC-12 cells [7] was “about 45%”.

Source of the values: US11576945B2, “Treatment for ischemic stroke” (CHS Pharma Inc., priority 2018, dated 2023).
